Measurements: the supplement of paper PMC4862054

Experiments:
MDA-MB-436 [1] = experiment: normalised viability (% of control), CellTiter-Blue; higher = more viable cells (about 100 = DMSO control); details: incubation time: 72 h
Method in brief: (§1)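 Each value is normalised viability at a single listed concentration of the series. Breast cancer cell lines in 384-well plates were incubated 72 h with compound and read by CellTiter-Blue fluorescence at 560/590 nm, with vehicle set to 100 and a positive kill control to 0 on every plate.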

HCC1599 [2] = experiment: as above; details: incubation time: 72 h
Method in brief: as §1

MDA-MB-231 [3] = experiment: as above; details: incubation time: 72 h
Method in brief: as §1

HCC1937 [4] = experiment: as above; details: incubation time: 72 h
Method in brief: as §1

CAL-148 [5] = experiment: as above; details: incubation time: 72 h
Method in brief: as §1

CAL-51 [6] = details: 72 h
Description: (§2)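 Drug sensitivity and resistance testing (DSRT) of breast cancer cell lines in 384-well plates, 5 concentrations in 10-fold dilutions over a compound-specific 10,000-fold range. After 72 h, cytotoxicity was read by CellTox Green fluorescence and viability by CellTiter-Glo luminescence (multiplexed), normalised to DMSO and benzethonium chloride controls. EC50 is the inflection point of the fitted dose-response curve (bottom asymptote free, so it can be relative for partial curves) and is censored at the highest tested concentration. Rows with DSS 0 (no meaningful response) were excluded.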

BT-474 [7] = details: 72 h
Description: as §2

DU-4475 [8] = details: 72 h
Description: as §2

MDA-MB-231 [9] = details: 72 h
Description: as §2

HCC1143 [10] = details: 72 h
Description: as §2

CAL-85-1 [11] = details: 72 h
Description: as §2

CAL-148 [12] = details: 72 h
Description: as §2

Hs578T [13] = details: 72 h
Description: as §2

MCF-10A [14] = details: 72 h
Description: as §2

HDQ-P1 [15] = details: 72 h
Description: as §2

MFM-223 [16] = details: 72 h
Method in brief: (§3)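 Breast cancer cell lines (20 µl suspension) were seeded into 384-well plates holding compound at 5 concentrations in 10-fold steps over a compound-specific 10,000-fold range, then incubated 72 h. Cell death was read first by CellTox Green fluorescence (485/520 nm), then viability by CellTiter-Glo luminescence after 10 min at room temperature. Each plate was normalised to 0.1 % DMSO and a positive kill control. EC50 was fitted from the dose-response curves and censored at the top concentration.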

CAL-51 [17] = details: 72 h; remark: listed apart in the source
Method in brief: as §3

BT-549 = details: 72 h
Method in brief: as §3

MDA-MB-436 [18] = details: 72 h
Method in brief: as §3

MDA-MB-453 [19] = details: 72 h
Method in brief: as §3

BT-474 [20] = details: 72 h; remark: listed apart in the source
Method in brief: as §3

DU-4475 [21] = details: 72 h; remark: listed apart in the source
Method in brief: as §3

HCC1599 [22] = details: 72 h
Method in brief: as §3

MDA-MB-231 [23] = details: 72 h; remark: listed apart in the source
Method in brief: as §3

HCC1143 [24] = details: 72 h; remark: listed apart in the source
Method in brief: as §3

SK-BR-3 = details: 72 h
Method in brief: as §3

CAL-85-1 [25] = details: 72 h; remark: listed apart in the source
Method in brief: as §3

HCC1937 [26] = details: 72 h
Method in brief: as §3

CAL-148 [27] = details: 72 h; remark: listed apart in the source
Method in brief: as §3

Hs578T [28] = details: 72 h; remark: listed apart in the source
Method in brief: as §3

MCF-10A [29] = details: 72 h; remark: listed apart in the source
Method in brief: as §3

HDQ-P1 [30] = details: 72 h; remark: listed apart in the source
Method in brief: as §3

MFM-223 [31] = details: 72 h; remark: listed apart in the source
Method in brief: (§4)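 Viability of breast cancer cell lines was measured with CellTiter-Blue after 72 h of incubation on compound-loaded 384-well plates. Cells were seeded in 20 µl onto compound dissolved in 5 µl medium, and 2.5 µl reagent was added for 2 h at 37 °C before reading at 560/590 nm. EC50 was fitted from percent-inhibition dose-response data censored at the highest concentration, normalised per plate to vehicle and a positive kill control, with zero drug sensitivity score rows dropped.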

BT-474 [32] = details: 72 h; remark: listed apart in the source
Method in brief: as §4

HCC1599 [33] = details: 72 h; remark: listed apart in the source
Method in brief: as §4

MDA-MB-231 [34] = details: 72 h; remark: listed apart in the source
Method in brief: as §4

HCC1143 [35] = details: 72 h; remark: listed apart in the source
Method in brief: as §4

Hs578T [36] = details: 72 h; remark: listed apart in the source
Method in brief: as §4

MDA-MB-453 [37] = details: 72 h; remark: listed apart in the source
Method in brief: as §4

DU-4475 [38] = details: 72 h; remark: listed apart in the source
Method in brief: as §4

CAL-85-1 [39] = details: 72 h; remark: listed apart in the source
Method in brief: as §4

HDQ-P1 [40] = details: 72 h; remark: listed apart in the source
Method in brief: as §4

MDA-MB-468 = details: 72 h
Method in brief: as §4

C=CCNC1=C2C[C@@H](C)C[C@H](OC)[C@H](O)[C@@H](C)/C=C(\C)[C@H](OC(N)=O)[C@@H](OC)/C=C\C=C(/C)C(=O)NC(=CC1=O)C2=O [Tanespimycin]
normalised viability [%]
Details | 3 nM | 10 nM | 30 nM | 100 nM | 1000 nM | 10000 nM
CAL-148 [5] | 97.8 | – | 89.7 | 38.5 | – | –
HCC1599 [2] | – | 123 | – | – | 42.7 | 31.3
HCC1937 [4] | – | 140 | – | – | 25.8 | 27.1
MDA-MB-231 [3] | – | 92.5 | – | – | 49.4 | 28.1
MDA-MB-436 [1] | – | 88.8 | – | – | 24.9 | 17.5

Details | EC50, CellTiter-Blue viability [nM] | EC50, CellTiter-Glo [nM] | EC50, CellTox Green
BT-474 [7] | – | – | 696 nM
BT-474 [20] | – | 324 | –
BT-474 [32] | 48.4 | – | –
BT-549 | – | 52.9 | –
CAL-51 [6] | – | – | 122 nM
CAL-51 [17] | – | 78.2 | –
CAL-85-1 [11] | – | – | 46.1 nM
CAL-85-1 [25] | – | 404 | –
CAL-85-1 [39] | 194 | – | –
CAL-148 [12] | – | – | 112 nM
CAL-148 [27] | – | 178 | –
DU-4475 [8] | – | – | 179 nM
DU-4475 [21] | – | 208 | –
DU-4475 [38] | 48.4 | – | –
HCC1143 [10] | – | – | > 10 µM
HCC1143 [24] | – | 63 | –
HCC1143 [35] | 8.84 | – | –
HCC1599 [22] | – | 266 | –
HCC1599 [33] | 84.3 | – | –
HCC1937 [26] | – | 113 | –
HDQ-P1 [15] | – | – | 112 nM
HDQ-P1 [30] | – | 103 | –
HDQ-P1 [40] | 82.7 | – | –
Hs578T [13] | – | – | 4340 nM
Hs578T [28] | – | 97.9 | –
Hs578T [36] | 36.9 | – | –
MCF-10A [14] | – | – | 105 nM
MCF-10A [29] | – | 87.8 | –
MDA-MB-231 [9] | – | – | 24.8 nM
MDA-MB-231 [23] | – | 371 | –
MDA-MB-231 [34] | 722 | – | –
MDA-MB-436 [18] | – | 28 | –
MDA-MB-453 [19] | – | 23.4 | –
MDA-MB-453 [37] | 15.5 | – | –
MFM-223 [16] | – | 64.1 | –
MFM-223 [31] | 18.4 | – | –
SK-BR-3 | – | 46.3 | –

CO[C@H]1C[C@@H]2CC[C@@H](C)[C@@](O)(O2)C(=O)C(=O)N2CCCC[C@H]2C(=O)O[C@H]([C@H](C)C[C@@H]2CC[C@@H](OC(=O)C(C)(CO)CO)[C@H](OC)C2)CC(=O)[C@H](C)/C=C(\C)[C@@H](O)[C@@H](OC)C(=O)[C@H](C)C[C@H](C)/C=C/C=C/C=C/1C [Temsirolimus]
normalised viability [%]
Details | 0.3 nM | 1 nM | 3 nM | 10 nM | 100 nM | 1000 nM
CAL-148 [5] | 74.3 | – | 45.9 | 39.4 | – | –
HCC1599 [2] | – | 103 | – | – | 78.7 | 86.8
HCC1937 [4] | – | 59.5 | – | – | 68.7 | 54.7
MDA-MB-231 [3] | – | 73.4 | – | – | 75.1 | 78.4
MDA-MB-436 [1] | – | 81.8 | – | – | 80.6 | 69.5

Details | EC50, CellTiter-Blue viability [nM] | EC50, CellTiter-Glo [nM] | EC50, CellTox Green [nM]
BT-474 [32] | 0.67 | – | –
BT-549 | – | 0.32 | –
CAL-51 [17] | – | 0.65 | –
CAL-85-1 [25] | – | 0.67 | –
CAL-85-1 [39] | 0.11 | – | –
CAL-148 [27] | – | 1.28 | –
DU-4475 [21] | – | 1.42 | –
DU-4475 [38] | 2.16 | – | –
HCC1143 [24] | – | 0.8 | –
HCC1143 [35] | 1.62 | – | –
HCC1937 [26] | – | 0.46 | –
HDQ-P1 [30] | – | 17.9 | –
HDQ-P1 [40] | 1.34 | – | –
Hs578T [13] | – | – | 1.28
Hs578T [28] | – | 0.15 | –
Hs578T [36] | 1 | – | –
MDA-MB-436 [18] | – | 6.71 | –
MDA-MB-453 [19] | – | 1.5 | –
MDA-MB-453 [37] | 0.37 | – | –
MDA-MB-468 | 0.39 | – | –
MFM-223 [16] | – | 0.77 | –
MFM-223 [31] | 0.18 | – | –
SK-BR-3 | – | 0.46 | –
